Results taken from DBAASP.
Converted amounts (≈) assume the structure as drawn.

What was measured:
Assay in all cases: ≥ marks a high value that may be exact or a test limit, other limits are often not marked, values filed in µg/mL are converted to µM
[1] = test system: Micrococcus luteus ATCC 4698
[2] = test system: Staphylococcus aureus USA 100
[3] = test system: Candida albicans NCPF 1467
[4] = test system: Escherichia coli NCTC 10418
[5] = test system: Staphylococcus aureus NCTC 10788
[6] = test system: Klebsiella pneumoniae ATCC 700603
Escherichia coli MG1655 = test system: Escherichia coli MG1655
[7] = test system: Pseudomonas aeruginosa ATCC 10145
[8] = test system: Staphylococcus aureus ATCC 25923
[9] = test system: Escherichia coli DH5alpha
Staphylococcus xylosus = test system: Staphylococcus xylosus
[10] = test system: Legionella pneumophila Lens
[11] = test system: Candida albicans ATCC 90028
[12] = test system: Staphylococcus epidermidis KCTC 1917
[13] = test system: Escherichia coli ATCC 25922
[14] = test system: Pseudomonas aeruginosa KCTC 1637
[15] = test system: Pseudomonas aeruginosa ATCC 9027
[16] = test system: Staphylococcus aureus KCTC 1621
[17] = test system: Escherichia coli KCTC 1682
[18] = test system: Staphylococcus aureus USA 300

CC(C)C[C@@H]1NC(=O)[C@H](CCCN=C(N)N)NC(=O)[C@H](CCCCN)NC(=O)[C@H](Cc2c[nH]c3ccccc23)NC(=O)CNC(=O)CNC(=O)[C@@H](N)CSSC[C@@H](C(=O)O)NC(=O)[C@H](CCCN=C(N)N)NC1=O [CGGWKRLRC]
MIC [1]: 13 µM (≈ 14 µg/mL)

NC(=O)[C@H](CCCN=C(N)N)NC(=O)[C@H](CC(=O)O)NC(=O)[C@H](CCCN=C(N)N)NC(=O)[C@@H](N)CC(=O)O [DRDR]
MIC [2]: ≥ 100 µM

CC[C@H](C)[C@H](NC(=O)[C@H](C)NC(=O)[C@H](CCCCN)NC(=O)[C@@H]1CCCN1C(=O)[C@@H](NC(=O)[C@H](CC(C)C)NC(=O)[C@H](CCCCN)NC(=O)[C@H](Cc1ccccc1)NC(=O)[C@H](CC(C)C)NC(=O)[C@@H](N)Cc1ccccc1)[C@@H](C)CC)C(=O)N[C@@H](CCCCN)C(=O)NCC(=O)N[C@@H](CC(C)C)C(=O)N[C@H](C(=O)N[C@@H](CCCCN)C(=O)N[C@@H](C)C(=O)N[C@@H](Cc1ccccc1)C(=O)N[C@H](C=O)CCCCN)[C@@H](C)CC [FLFKLIPKAIKGLIKAFK]
MIC [3]: 4 µM (≈ 8.24 µg/mL)
MIC [4]: 8 µM (≈ 16.5 µg/mL)
MIC [5]: 4 µM (≈ 8.24 µg/mL)

CC[C@H](C)[C@H](NC(=O)[C@H](C)NC(=O)[C@H](CCCCN)NC(=O)[C@@H](NC(=O)[C@H](CC(C)C)NC(=O)CNC(=O)[C@H](CCCCN)NC(=O)[C@@H](NC(=O)[C@@H](NC(=O)[C@H](CCCCN)NC(=O)[C@@H]1CCCN1C(=O)[C@@H](NC(=O)[C@H](CC(C)C)NC(=O)[C@H](CCCCN)NC(=O)[C@H](Cc1ccccc1)NC(=O)[C@H](CC(C)C)NC(=O)[C@@H](N)Cc1ccccc1)[C@@H](C)CC)C(C)C)[C@@H](C)CC)C(C)C)C(=O)N[C@@H](CCCN=C(N)N)C(=O)N[C@@H](CCCCN)C(N)=O [FLFKLIPKVIKGLVKAIRK]
MIC [3]: 1.81 µM (≈ 4 µg/mL)
MIC [4]: 7.23 µM (≈ 16 µg/mL)
MIC [5]: 1.81 µM (≈ 4 µg/mL)

NC(=O)[C@H](CCCN=C(N)N)NC(=O)[C@H](Cc1ccccc1)NC(=O)[C@H](CCCN=C(N)N)NC(=O)[C@@H](N)Cc1ccccc1 [FRFR]
MIC [2]: ≥ 100 µM

CC[C@H](C)[C@H](NC(=O)[C@H](CO)NC(=O)[C@H](CC(N)=O)NC(=O)[C@@H](NC(=O)[C@H](CC(C)C)NC(=O)[C@H](C)NC(=O)[C@H](CO)NC(=O)[C@H](C)NC(=O)[C@H](Cc1ccccc1)NC(=O)[C@H](CC(=O)O)NC(=O)[C@H](CCCCN)NC(=O)[C@H](C)NC(=O)CNC(=O)[C@H](CCCCN)NC(=O)[C@H](CCCCN)NC(=O)[C@H](CC(C)C)NC(=O)[C@H](CCCCN)NC(=O)[C@H](CCC(=O)O)NC(=O)[C@H](CC(C)C)NC(=O)[C@H](Cc1ccccc1)NC(=O)CN)C(C)C)C(=O)N[C@@H](CCCCN)C(=O)NCC(=O)N[C@H](C(=O)O)[C@@H](C)O [GFLEKLKKGAKDFASALVNSIKGT]
MIC [3]: ≥ 101 µM
MIC [4]: ≥ 50.7 µM
MIC [5]: ≥ 203 µM

CC[C@H](C)[C@H](NC(=O)CN)C(=O)NCC(=O)NCC(=O)N[C@@H](C)C(=O)N[C@@H](CC(C)C)C(=O)N[C@@H](CC(C)C)C(=O)N[C@@H](CC(N)=O)C(=O)N[C@H](C(=O)NCC(=O)N[C@@H](CCCCN)C(=O)N[C@H](C(=O)N[C@@H](C)C(=O)N[C@@H](CC(C)C)C(=O)N[C@@H](CCCCN)C(=O)NCC(=O)N[C@@H](CC(C)C)C(=O)N[C@@H](C)C(=O)N[C@@H](CCCCN)C(=O)NCC(=O)N[C@@H](CC(C)C)C(=O)N[C@@H](C)C(=O)N[C@@H](CCC(=O)O)C(=O)N[C@@H](Cc1cnc[nH]1)C(=O)N[C@@H](Cc1ccccc1)C(=O)N[C@@H](C)C(=O)N[C@@H](CC(N)=O)C(N)=O)C(C)C)C(C)C [GIGGALLNVGKVALKGLAKGLAEHFAN]
MIC [3]: 12.2 µM (≈ 32 µg/mL)
MIC [4]: 12.2 µM (≈ 32 µg/mL)
MIC [5]: 3.05 µM (≈ 8 µg/mL)

CC(C)C[C@H](NC(=O)[C@H](Cc1ccc(O)cc1)NC(=O)[C@H](Cc1cnc[nH]1)NC(=O)[C@H](CCCCN)NC(=O)[C@H](CC(C)C)NC(=O)[C@H](C)NC(=O)[C@H](CC(C)C)NC(=O)[C@H](CCCCN)NC(=O)CNC(=O)[C@@H](NC(=O)[C@@H](NC(=O)[C@H](CCCCN)NC(=O)[C@@H](NC(=O)[C@H](CCC(=O)O)NC(=O)[C@H](C)NC(=O)[C@H](CCCCN)NC(=O)[C@H](CCCCN)NC(=O)[C@H](CC(C)C)NC(=O)[C@H](CC(C)C)NC(=O)[C@@H](NC(=O)[C@H](CCCCN)NC(=O)[C@H](Cc1c[nH]c2ccccc12)NC(=O)CN)[C@@H](C)O)C(C)C)[C@@H](C)O)C(C)C)C(=O)O [GWKTLLKKAEVKTVGKLALKHYL]
MIC [6]: > 9.3 µM
MIC (Escherichia coli MG1655): 9.3 µM (≈ 24.4 µg/mL)
MIC [7]: 0.29 µM (≈ 0.761 µg/mL)
MIC [8]: 2.32 µM (≈ 6.09 µg/mL)

CC[C@H](C)[C@H](NC(=O)[C@H](CCCCN)NC(=O)[C@H](CCCCN)NC(=O)[C@@H](N)CCCCN)C(=O)N[C@H](C(=O)N[C@H](C(=O)N[C@H](C(=O)N[C@H](C(=O)N[C@@H](CCCCN)C(=O)N[C@@H](CCCCN)C(=O)N[C@@H](CCCCN)C(=O)O)[C@@H](C)CC)[C@@H](C)CC)[C@@H](C)CC)[C@@H](C)CC [KKKIIIIIKKK]
MIC [9]: 8 µM (≈ 10.8 µg/mL)
MIC (Staphylococcus xylosus): 0.5 µM (≈ 0.676 µg/mL)

CC(C)[C@H](NC(=O)[C@H](CCCCN)NC(=O)[C@H](CCCCN)NC(=O)[C@@H](N)CCCCN)C(=O)N[C@H](C(=O)N[C@H](C(=O)N[C@H](C(=O)N[C@H](C(=O)N[C@@H](CCCCN)C(=O)N[C@@H](CCCCN)C(=O)N[C@@H](CCCCN)C(=O)O)C(C)C)C(C)C)C(C)C)C(C)C [KKKVVVVVKKK]
MIC [9]: ≥ 64 µM
MIC (Staphylococcus xylosus): 8 µM (≈ 10.3 µg/mL)

CC[C@H](C)[C@H](NC(=O)[C@@H](N)CC(C)C)C(=O)N[C@@H](CCCCN)C(=O)N[C@@H](CCCN=C(N)N)C(=O)N[C@@H](CCCCN)C(=O)O [LIKRK]
MIC [9]: ≥ 64 µM
MIC (Staphylococcus xylosus): ≥ 64 µM

CC[C@H](C)[C@H](NC(=O)[C@H](CC(C)C)NC(=O)CNC(=O)[C@H](CCCCN)NC(=O)[C@@H](NC(=O)[C@@H](NC(=O)[C@H](CCC(=O)O)NC(=O)[C@@H](NC(=O)[C@@H](NC(=O)[C@H](CCCCN)NC(=O)[C@H](C)NC(=O)[C@@H](NC(=O)[C@@H](NC(=O)[C@H](CC(=O)O)NC(=O)[C@H](C)NC(=O)[C@@H](N)CCSC)C(C)C)[C@@H](C)CC)[C@@H](C)CC)C(C)C)[C@@H](C)CC)C(C)C)C(=O)N[C@@H](CC(=O)O)C(=O)N[C@@H](CCC(N)=O)C(=O)N[C@@H](Cc1ccccc1)C(=O)N[C@H](C(=O)N[C@@H](CCC(N)=O)C(=O)N[C@@H](CCCCN)C(=O)O)[C@@H](C)O [MADVIAKIVEIVKGLIDQFTQK]
MIC [10]: 1.27 µM (≈ 3.12 µg/mL)

CC[C@H](C)[C@H](NC(=O)[C@H](CC(C)C)NC(=O)[C@H](CCCCN)NC(=O)[C@H](CCCCN)NC(=O)[C@@H](NC(=O)[C@@H](NC(=O)[C@H](CCC(=O)O)NC(=O)[C@@H](NC(=O)[C@@H](NC(=O)[C@H](CCCCN)NC(=O)[C@H](C)NC(=O)[C@@H](NC(=O)[C@@H](NC(=O)CNC(=O)[C@H](C)NC(=O)[C@@H](N)CCSC)C(C)C)[C@@H](C)CC)[C@@H](C)CC)C(C)C)[C@@H](C)CC)C(C)C)C(=O)N[C@@H](CC(=O)O)C(=O)N[C@@H](CCC(N)=O)C(=O)N[C@@H](Cc1ccccc1)C(=O)N[C@H](C(=O)N[C@@H](CCC(N)=O)C(=O)N[C@@H](CCCCN)C(=O)O)[C@@H](C)O [MAGVIAKIVEIVKKLIDQFTQK]
MIC [10]: 0.94 µM (≈ 2.32 µg/mL)

CC[C@H](C)[C@H](NC(=O)[C@H](CC(C)C)NC(=O)[C@@H](NC(=O)[C@H](CC(C)C)NC(=O)[C@@H](NC(=O)[C@H](CC(C)C)NC(=O)[C@H](CCCCN)NC(=O)[C@H](CCCN=C(N)N)NC(=O)[C@H](CCCCN)NC(=O)[C@@H](N)CCCN=C(N)N)[C@@H](C)CC)[C@@H](C)CC)C(=O)N[C@@H](CCCCN)C(=O)N[C@@H](CCCN=C(N)N)C(=O)N[C@@H](CCCCN)C(=O)N[C@@H](CCCN=C(N)N)C(=O)O [RKRKLILILIKRKR]
MIC [9]: 8 µM (≈ 14.7 µg/mL)
MIC (Staphylococcus xylosus): 0.5 µM (≈ 0.917 µg/mL)

NCCCC[C@H](NC(=O)[C@H](Cc1c[nH]c2ccccc12)NC(=O)[C@H](CCCCN)NC(=O)[C@@H](N)Cc1c[nH]c2ccccc12)C(N)=O [WKWK]
MIC [2]: ≥ 100 µM

NC(=O)[C@H](CCCN=C(N)N)NC(=O)[C@H](Cc1c[nH]c2ccccc12)NC(=O)[C@H](CCCN=C(N)N)NC(=O)[C@H](Cc1c[nH]c2ccccc12)NC(=O)[C@H](CCCN=C(N)N)NC(=O)[C@@H](N)Cc1c[nH]c2ccccc12 [WRWRWR]
MIC [11]: ≥ 100 µM
MIC [12]: 7.65 µM (≈ 7.99 µg/mL)
MIC [2]: 25 µM (≈ 26.1 µg/mL)
MIC [8]: 7.18 µM (≈ 7.49 µg/mL)
MIC [13]: 7.18 µM (≈ 7.49 µg/mL)
MIC [14]: 15.3 µM (≈ 16 µg/mL)
MIC [15]: > 100 µM
MIC [16]: 7.65 µM (≈ 7.99 µg/mL)
MIC [17]: 3.83 µM (≈ 4 µg/mL)
MIC [18]: 25 µM (≈ 26.1 µg/mL)
